Our source for the IC50 values is PubChem BioAssay AID1645861 (Buhrlage Lab, Dana-Farber Cancer Institute and Novartis …, 2021).

SMILES strings stand for the structures. Activity calls are given as the source filed them.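 How the source made its calls: active means compounds whose peak USP7 inhibition across the dose series reached 30% or more; inactive means the rest.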 Some results are limits rather than exact numbers.

In the assay the target is Ubiquitin carboxyl-terminal hydrolase 7 (Homo sapiens) (UniProt Q93009). Briefly: Ubiquitin-specific protease 7 DUB inhibitors, concentration-effect, biochemical, validation of primary hits (AID 1645861). The settings on record: purified USP7, Ub-rhodamine cleavage fluorescence, 60 min.
Sequence of Ubiquitin carboxyl-terminal hydrolase 7 (Homo sapiens) (Q93009 whole entry, looked up): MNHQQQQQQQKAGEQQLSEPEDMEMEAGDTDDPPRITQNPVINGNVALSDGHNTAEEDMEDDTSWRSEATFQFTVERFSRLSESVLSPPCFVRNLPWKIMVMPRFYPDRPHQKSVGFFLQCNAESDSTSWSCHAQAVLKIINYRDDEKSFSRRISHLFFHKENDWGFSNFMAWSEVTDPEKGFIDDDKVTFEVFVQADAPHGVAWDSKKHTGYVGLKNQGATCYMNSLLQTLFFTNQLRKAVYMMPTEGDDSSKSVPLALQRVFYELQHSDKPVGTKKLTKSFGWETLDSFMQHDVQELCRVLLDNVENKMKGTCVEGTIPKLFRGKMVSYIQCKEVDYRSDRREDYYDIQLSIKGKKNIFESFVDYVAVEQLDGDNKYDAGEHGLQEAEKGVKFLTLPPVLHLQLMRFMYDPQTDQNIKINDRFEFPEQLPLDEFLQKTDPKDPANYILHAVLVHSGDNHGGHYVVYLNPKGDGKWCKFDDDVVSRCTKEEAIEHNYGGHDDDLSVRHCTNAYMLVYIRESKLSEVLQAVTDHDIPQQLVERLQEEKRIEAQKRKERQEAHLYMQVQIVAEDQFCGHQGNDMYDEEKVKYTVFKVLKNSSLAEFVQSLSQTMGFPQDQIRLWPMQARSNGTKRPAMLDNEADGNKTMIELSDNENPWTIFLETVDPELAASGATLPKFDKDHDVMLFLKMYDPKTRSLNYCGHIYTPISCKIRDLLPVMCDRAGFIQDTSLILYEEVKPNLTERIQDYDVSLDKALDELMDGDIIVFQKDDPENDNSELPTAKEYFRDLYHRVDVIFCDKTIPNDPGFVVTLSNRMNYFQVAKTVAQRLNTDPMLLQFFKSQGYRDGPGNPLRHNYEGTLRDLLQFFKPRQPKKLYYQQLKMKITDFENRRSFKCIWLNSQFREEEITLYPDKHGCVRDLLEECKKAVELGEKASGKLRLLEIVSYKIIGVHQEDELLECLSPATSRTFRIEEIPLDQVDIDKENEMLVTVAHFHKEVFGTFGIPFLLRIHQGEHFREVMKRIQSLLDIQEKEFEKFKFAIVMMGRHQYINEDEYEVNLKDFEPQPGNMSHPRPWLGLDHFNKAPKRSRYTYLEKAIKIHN
Turning to `O=c1[nH]c(C2CCN(S(=O)(=O)c3ccc(S(=O)(=O)NC4CCCCC4)cc3)CC2)nc2c1nnn2Cc1ccc(F)cc1`, the IC50 was > 50 µM (inactive).

Take `Cc1cccc(NC(=O)CSc2nc3c(cc2C#N)C(=O)CCC3)c1`: the IC50 is > 50 µM (inactive). In the case of `CC1=C(Cn2c3cccc(=O)c-3nc3ccccc32)CCC(C)(C)C1`, the IC50 was > 50 µM (inactive). As for `CCOc1ccc2c(c1)c(=O)c(C(=O)c1ccccc1)cn2CC(=O)Nc1ccc2c(c1)OCCO2`, the IC50 is > 50 µM (inactive). As to `N#Cc1cccc(NC(=O)Nc2cccn(Cc3ccccc3F)c2=O)c1`, the IC50 is > 50 µM (inactive).

Take `COc1ccc(Cl)cc1NC(=O)COC(=O)c1cc2ccccc2oc1=O`: the IC50 was > 50 µM (inactive). Regarding `Cc1ccc(CNC(=O)Cn2c(=O)n(CCCC(=O)NCc3ccc(F)cc3)c(=O)c3ccccc32)cc1`, the IC50 was > 50 µM (inactive). The value for `O=C(c1ccccn1)N1CCC2(CC1)CC1(CO2)Nc2ccccc2-n2cccc21` (stereo not drawn) was > 50 µM (inactive). Under `COc1ccc(-c2c(NC(=O)C3COc4ccccc4O3)n[nH]c2C)cc1OC` (stereo not drawn) stands > 50 µM (inactive); under `CCC1OC(O)(C(C)C(O)C(C)C2OC(=O)/C(C)=C/C(C)=CC(C)C(O)C(C)C/C(C)=C/C=C/C2OC)CC(OC(=O)/C=C/C(=O)NC2=C(O)CCC2=O)C1C` (stereo not drawn), 23.2 µM; under `Cc1ccc(Nc2nc(NCC(=O)Nc3cc(C)ccc3C)nc(Nc3ccc(C)cc3)n2)cc1`, > 50 µM (inactive).

On to `Cn1c2ccccc2c2ncn(CCCN3CCOCC3)c(=O)c21`, for which the IC50 is > 50 µM (inactive). Regarding `CCCCCCCc1cc(OC(=O)c2c(CCCCCCC)cc(O)cc2O[C@@H]2O[C@H](CO)[C@@H](O)[C@H](O)[C@H]2O)cc(O)c1C(=O)O`, the IC50 is 9.94 µM. For the compound `CC(C)CC1NC(=O)C2CCCN2C1=O` (stereo not drawn), the IC50 is > 50 µM (inactive). For `COC(=O)C1=CC(OC)=C(Cl)C(=O)C12OC(=O)c1c(O)cc(C)cc1O2` (stereo not drawn), the IC50 was > 50 µM (inactive). On to `CN(C)[C@H]1C(=O)C(C(N)=O)=C(O)C2(O)C(=O)C3=C(O)c4c(O)cccc4C(C)(O)C3C(O)C12` (stereo partly drawn), for which the IC50 was 34.1 µM. For the compound `Cc1noc(-c2cc(=O)n(CC(=O)Nc3ccccc3Cl)c3ccccc23)n1`, the IC50 is > 50 µM (inactive). Regarding `COc1ccc([N+](=O)[O-])cc1NC(=O)COC(=O)c1ccc2[nH]c3c(c2c1)CCCC3`, the IC50 was > 50 µM (inactive). As for `Cc1cc(C)cc(NC(=O)Nc2ccccc2OCc2cc(=O)n3c(ncn3C(C)C)n2)c1`, the IC50 is > 50 µM (inactive). On to `COc1cc(O)cc2c1C(=O)OC(C)CCCCCCC2` (stereo not drawn), for which the IC50 is > 50 µM (inactive). With `CC1(C)Cc2c(c(-c3ccco3)nc3sc4c(SCCCc5ccccc5)ncnc4c23)CO1`, the IC50 is > 50 µM (inactive).

For `CCCn1cc(C(=O)N2CCC3(CC2)CC2(CO3)Nc3ccccc3-n3cccc32)c(C)n1` (stereo not drawn), the IC50 is > 50 µM (inactive). As to `COc1cc2c(=O)n(Cc3ccccc3)c(=O)n(CC(=O)N3CCCc4ccccc43)c2cc1OC`, the IC50 was > 50 µM (inactive). Regarding `Cc1cc(C(F)(F)F)n2nc(C3CCN(C(=O)c4cnn(C)c4C)C3)cc2n1` (stereo not drawn), the IC50 is > 50 µM (inactive).

As to `O=C(Cn1c(=O)n(CC2CCC(C(=O)NCCc3ccccc3)CC2)c(=O)c2ccccc21)NCc1ccco1` (stereo not drawn), the IC50 was > 50 µM (inactive).

On to `CCOC(=O)C1CCN(Cc2cc(=O)oc3cc(O)c(O)cc23)CC1`, for which the IC50 is 6.18 µM. The value for `CCN(CC)Cc1ccc(-c2nnc(-c3cnc4onc(C)c4c3)o2)o1` was > 50 µM (inactive).

`Cn1c2ccccc2c(=O)c2c(=O)n(-c3cccc(Cl)c3)c(-c3cccs3)nc21`: the IC50 was 35.1 µM. The value for `Cc1cccc(NC(=O)Nc2nnc(CC(=O)NCc3ccccc3)s2)c1` was > 50 µM (inactive). With `CCOC(=O)c1ccc(NC(=O)Cn2c(=O)n(CC(=O)NCc3ccco3)c(=O)c3ccccc32)cc1`, the IC50 is > 50 µM (inactive). In the case of `CC1=C(C)C(N(c2ccccc2)c2ccccc2)N(CCC(C)C)C1=O` (stereo not drawn), the IC50 is > 50 µM (inactive). Under `O=C(Cn1cc(C(=O)C(F)(F)F)c2cc(Br)ccc21)N1CCc2ccccc21` stands > 50 µM (inactive); under `Nc1ccc(C(=O)OCC(=O)NC2CCCc3ccccc32)cc1[N+](=O)[O-]` (stereo not drawn), > 50 µM (inactive). The value for `CN(C)[C@@H]1C(=O)C(C(N)=O)=C(O)[C@@]2(O)C(=O)C3=C(O)c4c(O)cccc4[C@@](C)(O)C3[C@H](O)[C@@H]12` (stereo partly drawn) was 6.37 µM; that for `Cc1nc(SCC(=O)NC(C)c2ccccc2)c2oc3ccccc3c2n1` (stereo not drawn) was > 50 µM (inactive).

Consider `Cc1nc(N2CCN(c3ccc(Cl)cc3)CC2)c2oc3ccccc3c2n1`, for which the IC50 was > 50 µM (inactive). In the case of `CC(=O)[C@H]1c2c(c(O)c3c(O)cccc3c2-c2c3c(c(O)c4c(O)cccc24)C(=O)C[C@](C)(O)[C@H]3C(C)=O)C(=O)C[C@]1(C)O`, the IC50 is > 50 µM (inactive).

Consider `Cc1ccc([N+](=O)[O-])cc1S(=O)(=O)Nc1cc2sc(=O)oc2c2ccccc12`, for which the IC50 was > 50 µM (inactive). On to `CCOc1cccc(-c2noc(-c3nn(-c4ccccc4)ccc3=O)n2)c1`, for which the IC50 was > 50 µM (inactive).

For the compound `Cc1nn(-c2ccc(F)cc2)c(C)c1S(=O)(=O)N1CCN(c2ccccn2)CC1`, the IC50 was > 50 µM (inactive). Under `Cc1ccc(N2CC(c3nc4ccccc4n3CCOc3cccc(C)c3)CC2=O)cc1` (stereo not drawn) stands 42.7 µM.

`CC(C)=CCOC(C)(C)[C@H]1OC2CC[C@@]3(C)C(CCC4Cc5c([nH]c6ccccc56)[C@@]43C)C23OC3[C@@H]1O` (stereo partly drawn): the IC50 is 37.7 µM. Turning to `O=C1C=C(O)c2c(O)cccc2C1=O`, the IC50 is > 50 µM (inactive). On to `O=C(CSc1oc(-c2ccc(F)cc2)nc1S(=O)(=O)c1ccc(F)cc1)Nc1ccc(F)cc1`, for which the IC50 is > 50 µM (inactive). As to `O=C1C(=O)N(c2nc3ccc(F)cc3s2)C(c2ccc(F)cc2)/C1=C(\O)c1ccc(F)cc1` (stereo not drawn), the IC50 was 30.6 µM. Under `COc1cc(NC(=O)Cc2ccccc2)ccc1NC(=O)c1cc2ccccc2o1` stands > 50 µM (inactive); under `O=C1Cc2ccccc2C(=O)N1c1ccc2c(c1)OCO2`, > 50 µM (inactive); under `N#Cc1c(-c2ccc(Cl)cc2)cc(-c2cccc(Br)c2)[nH]c1=O`, > 50 µM (inactive).

Turning to `N#Cc1cn2c(nc1-c1ccc(Cl)cc1)nc1ccccc12`, the IC50 was > 50 µM (inactive). Under `CCOc1ccc(NC(=O)Cn2c(=O)n(CCC(=O)NCc3ccco3)c(=O)c3ccccc32)cc1` stands > 50 µM (inactive); under `O=C(COc1ccccc1)Nc1ccc(-c2nc3cnccc3o2)c(O)c1`, > 50 µM (inactive). Turning to `O=C(CCc1ccc(S(=O)(=O)N2CCOCC2)cc1)OCC(=O)c1ccc(-c2ccccc2)cc1`, the IC50 is > 50 µM (inactive). In the case of `Cc1cccc(NC(=O)Nc2ccccc2OCc2cc(=O)n3cccc(C)c3n2)c1`, the IC50 was > 50 µM (inactive). For `O=C(CCCCCn1c(=O)c2sccc2n(CC(=O)c2ccc(Cl)c(Cl)c2)c1=O)NCc1ccc2c(c1)OCO2`, the IC50 was > 50 µM (inactive). The value for `COc1cccc(CNC(=O)c2nnn(CC(=O)Nc3cc(C)ccc3C)c2N)c1` was > 50 µM (inactive); that for `CC(NC(=O)c1nc2n(n1)-c1ccccc1S(=O)(=O)N2)c1cc2ccccc2o1` (stereo not drawn) was > 50 µM (inactive). On to `O=c1cc(-c2ccc(O)c(O)c2)oc2cc(O)cc(O)c12`, for which the IC50 is 2.81 µM. The value for `Cc1ccc2nc(CNc3ccc(F)cc3C)cc(=O)n2c1` was > 50 µM (inactive); that for `COc1cccc(NC(=O)Cn2c3ccccc3n3c(=O)cc(-c4ccccc4)nc23)c1` was > 50 µM (inactive). `CCCCCCCC1OC(=O)Cc2cc(O)c(O)c(O)c21` (stereo not drawn): the IC50 was > 50 µM (inactive). For `C[C@H](Cc1cc2c(cc1O)OCO2)[C@@H](C)Cc1cc2c(cc1O)OCO2`, the IC50 is > 50 µM (inactive). On to `O=C1c2c(O)cccc2C2(Oc3cccc4cccc(c34)O2)C2OC12` (stereo not drawn), for which the IC50 was > 50 µM (inactive). Regarding `O=C1NC(=O)/C(=C/c2ccc(OC(=O)c3ccc(Cl)cc3Cl)cc2)N1`, the IC50 is > 50 µM (inactive).

As for `Cc1nnc(NC(=O)C2CCN(c3ccc(S(N)(=O)=O)cc3[N+](=O)[O-])CC2)o1`, the IC50 was 49.4 µM. For `COc1ccc(NC(=O)CC(=O)c2ccc([N+](=O)[O-])cc2)cc1S(=O)(=O)Nc1ccc(Cl)cc1`, the IC50 was > 50 µM (inactive). With `CC(NC(=O)c1ccccc1)c1nc2ccccc2n1CC(=O)Nc1ccc(C#N)cc1` (stereo not drawn), the IC50 is > 50 µM (inactive).

`Cc1ccc(NC(=O)Cn2cc(C(=O)c3ccccc3)c(=O)c3cc(C)ccc32)cc1`: the IC50 was > 50 µM (inactive). Take `COc1ccccc1N1CCN(C(=O)c2ccc3c(=O)n(CCc4ccccc4)c(=O)[nH]c3c2)CC1`: the IC50 was > 50 µM (inactive). The value for `CCCCCCCCCc1cc(OC(=O)c2c(CCCCCCCCC)cc(O)cc2O[C@@H]2O[C@H](CO)[C@@H](O)[C@H](O)[C@H]2O)cc(O)c1C(=O)O` was 5.09 µM; that for `O=C(CCCn1c(=O)c2sccc2n(CC(=O)NCCC2=CCCCC2)c1=O)NCc1ccc2c(c1)OCO2` was > 50 µM (inactive); that for `CCc1nc(SCC(=O)Nc2ccc(C)cc2C)c2oc3ccccc3c2n1` was > 50 µM (inactive). As to `FC(F)(F)c1ccc(Nc2nnnc3ccccc23)cc1`, the IC50 is 20.5 µM. For the compound `O=C(Nc1ccc(F)cc1)Nc1ccccc1OCc1cc(=O)n2ccccc2n1`, the IC50 was > 50 µM (inactive).

Turning to `O=C(Nc1cccc(F)c1)Nc1cccc(-c2nnc(-c3ccccc3)o2)c1`, the IC50 was > 50 µM (inactive). Turning to `COc1ccc(CCC(=O)Nc2nnc(C3CC(=O)N(c4ccc(C)cc4)C3)s2)cc1` (stereo not drawn), the IC50 was > 50 µM (inactive). As for `Cc1nc(C(=O)NC2(O)C(=O)c3ccccc3C2=O)cs1`, the IC50 was > 50 µM (inactive).

As to `CCC(=O)Nc1cccnc1-c1ccc(C(=O)Nc2ccc3c(c2)OCO3)cc1`, the IC50 is > 50 µM (inactive). On to `Cc1ccc(S(=O)(=O)Nc2ccccc2C(=O)Nc2nc3ccc(Br)cc3s2)cc1`, for which the IC50 was 10 µM.
